The format of the series is physicochemical. As to conditions: pH 11. As to the method: A PGS-aspirin copolymer from Example 6 was thermoset by heating to 130° C. at a pressure of 10 Torr for 72 hours. Three thin cylindrical disks, each having a diameter of 10 mm, were punched out of the resultant thin film, which was about 1 mm thick.
Each disk was placed in 10 mL of 0.09 M phosphate-buffered saline (PBS) at a pH of 11 and a temperature of 37° C. for four weeks. At 1-week intervals, the solution was removed and tested for salicylic acid content by UV analysis at a wavelength of 303 nm and for pH. Each sample was rinsed three times with distilled water and vacuum dried prior to being placed in fresh PBS.

Turning to PGS-aspirin copolymer [Example 8], the “disk integrity during degradation” value is recorded as “began to fall apart”.
